Test results reported in BigSolDB 2.1.

O=[N+]([O-])c1cn[nH]c1
solubility (mole fraction)
Conditions	288.15 K	293.15 K	298.15 K	303.15 K	308.15 K	313.15 K	318.15 K	323.15 K	328.15 K
in THF	0.00413	0.00496	0.00592	0.00722	0.0089	0.011	0.0134	0.017	0.022
in acetone	0.0381	0.0405	0.0423	0.045	0.047	0.0495	0.0525	0.0553	0.0582
in acetonitrile	0.0391	0.0457	0.0529	0.0647	0.0776	0.0906	0.108	0.124	0.135
in ethanol	0.101	0.113	0.128	0.147	0.168	0.197	0.232	0.27	0.31
in ethyl acetate	0.00483	0.00609	0.00759	0.00946	0.0118	0.0144	0.0176	0.0214	0.0261
in isobutanol	0.0549	0.0648	0.0762	0.0908	0.107	0.132	0.161	0.195	0.247
in isopentanol	0.0629	0.0732	0.0854	0.106	0.12	0.143	0.173	0.213	0.262
in isopropanol	0.0481	0.0568	0.0675	0.0827	0.0988	0.121	0.147	0.186	0.238
in methanol	0.109	0.126	0.142	0.163	0.188	0.219	0.258	0.312	0.366
in methyl acetate	0.00727	0.00817	0.00942	0.0119	0.0139	0.0169	0.0189	0.024	0.0272
in n-butanol	0.079	0.0902	0.104	0.12	0.14	0.166	0.199	0.241	0.283
in n-pentanol	0.0714	0.0823	0.095	0.112	0.132	0.156	0.189	0.232	0.276
in n-propanol	0.0872	0.101	0.115	0.133	0.154	0.181	0.216	0.255	0.313
in water	0.00217	0.00286	0.0036	0.00471	0.00618	0.00763	0.00961	0.012	0.0151
